#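 A five-concentration, 48-hour dose response in 96-well plates underlies each endpoint, interpolated linearly between surrounding concentrations. The concentration for 50% growth inhibition is given as GI50.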 Active and inactive are the calls of the source. Rule as the data show it: active = GI50 up to about 1.1 µM and inactive = higher.
# Columns and labels:
# Assay in all cases: NCI tumour cell line growth inhibition, 48 h
# [1] = system: SW-620
# [2] = system: SK-MEL-2
# [3] = system: MCF7
# [4] = system: SNB-19
# [5] = system: CCRF-CEM
# [6] = system: SF-295
# [7] = system: 786-0
# [8] = system: OVCAR-3
# [9] = system: HCC 2998
# [10] = system: HL-60
# [11] = system: MDA-MB-435
# [12] = system: LOX IMVI
# [13] = system: SF-268
# [14] = system: OVCAR-5
# [15] = system: EKVX
# [16] = system: DU-145
# [17] = system: K562
# [18] = system: NCI-H522
# [19] = system: OVCAR-4
# [20] = system: NCI-H23
Compound,GI50 [1],GI50 [2],GI50 [3],GI50 [4],GI50 [5],GI50 [6],GI50 [7],GI50 [8],GI50 [9],GI50 [10],GI50 [11],GI50 [12],GI50 [13],GI50 [14],GI50 [15],GI50 [16],GI50 [17],GI50 [18],GI50 [19],GI50 [20]
CC(=O)Oc1ccc2c(C)cc(=O)oc2c1,> 100 µM (inactive),> 100 µM (inactive),> 100 µM (inactive),> 100 µM (inactive),> 100 µM (inactive),> 100 µM (inactive),> 100 µM (inactive),> 100 µM (inactive),> 100 µM (inactive),> 100 µM (inactive),> 100 µM (inactive),> 100 µM (inactive),> 100 µM (inactive),> 100 µM (inactive),> 100 µM (inactive),> 100 µM (inactive),> 100 µM (inactive),> 100 µM (inactive),> 100 µM (inactive),> 100 µM (inactive)
CCC(C)(C)c1ccc(Oc2cccc(C(=O)O)c2)cc1,53 µM (inactive),45.2 µM (inactive),36.8 µM (inactive),85.5 µM (inactive),28.9 µM (inactive),38.3 µM (inactive),89.3 µM (inactive),26.7 µM (inactive),93.3 µM (inactive),40.1 µM (inactive),45 µM (inactive),50.4 µM (inactive),46.8 µM (inactive),> 100 µM (inactive),40.4 µM (inactive),97.1 µM (inactive),32.6 µM (inactive),28.2 µM (inactive),44.3 µM (inactive),52.2 µM (inactive)
O=S(=O)(c1cc(Cl)ccc1Cl)n1ccnc1,77.4 µM (inactive),30.5 µM (inactive),35 µM (inactive),70.8 µM (inactive),37.3 µM (inactive),> 100 µM (inactive),54.2 µM (inactive),46.9 µM (inactive),15.8 µM (inactive),28.4 µM (inactive),18.2 µM (inactive),37.7 µM (inactive),45.1 µM (inactive),35.5 µM (inactive),61.2 µM (inactive),35.4 µM (inactive),34 µM (inactive),27.4 µM (inactive),43 µM (inactive),20.9 µM (inactive)
c1ccc(C(OCCN2CC3CCC(C2)N3)c2ccccc2)cc1,81.3 µM (inactive),76.7 µM (inactive),48.6 µM (inactive),> 100 µM (inactive),> 100 µM (inactive),83 µM (inactive),41 µM (inactive),45 µM (inactive),17.8 µM (inactive),74.1 µM (inactive),35.9 µM (inactive),66.4 µM (inactive),> 100 µM (inactive),> 100 µM (inactive),> 100 µM (inactive),> 100 µM (inactive),43.8 µM (inactive),35.2 µM (inactive),> 100 µM (inactive),> 100 µM (inactive)
COC(=O)NC1C(C)OC(OC2C/C=C(/C)C3C=CC4C(OC5CC(OC6CC(O)C(OC7CC(O)C(OC)C(C)O7)C(C)O6)C(O)C(C)O5)C(C)CC(C)C4C3(C)C(=O)C3=C(O)C4(CC(C)C(CO)=CC4/C=C\2C)OC3=O)CC1(C)[N+](=O)[O-] (stereo not given),9.86 µM (inactive),11.4 µM (inactive),2.71 µM (inactive),19.1 µM (inactive),2.79 µM (inactive),16.6 µM (inactive),9.93 µM (inactive),6.84 µM (inactive),16.6 µM (inactive),4.51 µM (inactive),8.75 µM (inactive),11.5 µM (inactive),14.8 µM (inactive),17.9 µM (inactive),5.26 µM (inactive),11.6 µM (inactive),4.41 µM (inactive),5.69 µM (inactive),3.48 µM (inactive),11.9 µM (inactive)
O=[N+]([O-])C1=Cc2cc(Cl)ccc2OC1c1cccc2ccccc12 (stereo not given),0.149 µM (active),1.36 µM (inactive),0.521 µM (active),1.65 µM (inactive),0.191 µM (active),2.38 µM (inactive),0.396 µM (active),0.603 µM (active),0.984 µM (active),3.83 µM (inactive),1.44 µM (inactive),0.29 µM (active),1.26 µM (inactive),1.99 µM (inactive),1.27 µM (inactive),1.91 µM (inactive),0.371 µM (active),1.27 µM (inactive),1.57 µM (inactive),0.847 µM (active)
COc1ccc(C2CC(c3ccc(NS(=O)(=O)c4cc([N+](=O)[O-])ccc4C)cc3)=NN2S(=O)(=O)c2cc([N+](=O)[O-])ccc2C)cc1 (stereo not given),72.9 µM (inactive),35.6 µM (inactive),39 µM (inactive),61.2 µM (inactive),65.2 µM (inactive),33 µM (inactive),88.5 µM (inactive),33.4 µM (inactive),10.5 µM (inactive),51.6 µM (inactive),46 µM (inactive),68.1 µM (inactive),22.8 µM (inactive),> 100 µM (inactive),39.7 µM (inactive),> 100 µM (inactive),36.1 µM (inactive),22.3 µM (inactive),40 µM (inactive),22.4 µM (inactive)
O=C1C(Br)=Cc2c(Cl)sc(Cl)c21,2.19 µM (inactive),13.6 µM (inactive),2.44 µM (inactive),18.9 µM (inactive),0.232 µM (active),24 µM (inactive),1.77 µM (inactive),2.67 µM (inactive),2.37 µM (inactive),1.87 µM (inactive),2.11 µM (inactive),2.36 µM (inactive),3.4 µM (inactive),13.3 µM (inactive),7.24 µM (inactive),5.42 µM (inactive),1.07 µM (active),5.16 µM (inactive),2.74 µM (inactive),8.85 µM (inactive)
CCOC(=O)[C@@H](Cc1ccc(CCl)cc1)NC(C)=O,31 µM (inactive),17.1 µM (inactive),26.1 µM (inactive),27.2 µM (inactive),26.7 µM (inactive),32.8 µM (inactive),19.1 µM (inactive),30.1 µM (inactive),17.7 µM (inactive),27 µM (inactive),19.9 µM (inactive),19 µM (inactive),24 µM (inactive),20.6 µM (inactive),22.2 µM (inactive),38.1 µM (inactive),34.4 µM (inactive),17.6 µM (inactive),19.9 µM (inactive),25 µM (inactive)
Cc1ccnc(NS(=O)(=O)c2ccc(NC(=O)c3ccc4nc5ccccc5c(Nc5ccc(S(=O)(=O)Nc6nccc(C)n6)cc5)c4c3)cc2)n1,> 100 µM (inactive),16 µM (inactive),21.1 µM (inactive),51.1 µM (inactive),42.3 µM (inactive),> 100 µM (inactive),> 100 µM (inactive),33.6 µM (inactive),37.2 µM (inactive),94.4 µM (inactive),66.1 µM (inactive),45.3 µM (inactive),28.3 µM (inactive),> 100 µM (inactive),> 100 µM (inactive),> 100 µM (inactive),41.4 µM (inactive),39.4 µM (inactive),52.4 µM (inactive),> 100 µM (inactive)
COC(=O)c1nc2n(n1)-c1ccccc1C(=O)N(Cc1ccccc1)C2,> 100 µM (inactive),> 100 µM (inactive),> 100 µM (inactive),> 100 µM (inactive),> 100 µM (inactive),> 100 µM (inactive),> 100 µM (inactive),> 100 µM (inactive),40.4 µM (inactive),> 100 µM (inactive),> 100 µM (inactive),> 100 µM (inactive),> 100 µM (inactive),> 100 µM (inactive),> 100 µM (inactive),> 100 µM (inactive),> 100 µM (inactive),> 100 µM (inactive),> 100 µM (inactive),> 100 µM (inactive)
CC1CCC2(OC1)OC1CC3C4CC=C5CC(OC6OC(CO)C(OC7OC(C)C(OC8OC(C)C(O)C(O)C8O)C(O)C7O)C(O)C6OC6OC(C)C(O)C(O)C6O)CCC5(C)C4CCC3(C)C1C2C (stereo not given),1.48 µM (inactive),1.21 µM (inactive),1.38 µM (inactive),0.262 µM (active),0.0643 µM (active),0.308 µM (active),1.07 µM (active),1.75 µM (inactive),0.313 µM (active),0.239 µM (active),0.281 µM (active),0.185 µM (active),0.56 µM (active),1.12 µM (inactive),0.757 µM (active),1.28 µM (inactive),0.142 µM (active),0.643 µM (active),0.275 µM (active),1.66 µM (inactive)
COc1cccc2c1C(=O)c1c(O)c3c(c(O)c1C2=O)CC(O)(C(=O)CO)CC3OC1CC(N2CCOCC2C#N)C(O)C(C)O1 (stereo not given),< 0.0001 µM (active),< 0.0001 µM (active),< 0.0001 µM (active),< 0.0001 µM (active),< 0.0001 µM (active),< 0.0001 µM (active),< 0.0001 µM (active),< 0.0001 µM (active),< 0.0001 µM (active),< 0.0001 µM (active),< 0.0001 µM (active),< 0.0001 µM (active),> 0.01 µM (active),< 0.0001 µM (active),< 0.0001 µM (active),< 0.0001 µM (active),< 0.0001 µM (active),< 0.0001 µM (active),> 0.01 µM (active),< 0.0001 µM (active)

# From ChEMBL document CHEMBL1201862, “PubChem BioAssay data set” (2004)
